Source: ChEMBL document CHEMBL1201862, “PubChem BioAssay data set” (2004)
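Each compound was tested at five concentrations against cells in 96-well plates for 48 hours. GI50 marks 50% less growth.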 Active and inactive are the calls of the source. No stated cut-off is given here; in the data, active = GI50 up to about 1.1 µM and inactive = higher.

Assays:
Test in all cases: NCI-60 cell line screen, 48 h
SNB-19 = system: SNB-19
U-251 = system: U-251
SNB-75 = system: SNB-75
MOLT-4 = system: MOLT-4
OVCAR-4 = system: OVCAR-4
IGROV-1 = system: IGROV-1
OVCAR-5 = system: OVCAR-5
UACC-62 = system: UACC-62
HOP-92 = system: HOP-92
SW-620 = system: SW-620
SK-MEL-5 = system: SK-MEL-5
RXF 393 = system: RXF 393
MDA-N = system: MDA-N
M14 = system: M14
HT-29 = system: HT-29
SK-MEL-2 = system: SK-MEL-2
TK-10 = system: TK-10
HCT-116 = system: HCT-116
SK-MEL-28 = system: SK-MEL-28
A498 = system: A498

Measured: GI50

CC1(C)CN=C(Nc2ccc(F)c(Cl)c2)S1
inactive: SNB-19 > 100 µM | U-251 > 100 µM | SNB-75 > 100 µM | MOLT-4 > 100 µM | OVCAR-4 > 100 µM | IGROV-1 > 100 µM | OVCAR-5 > 100 µM | UACC-62 > 100 µM | HOP-92 > 100 µM | SW-620 > 100 µM | SK-MEL-5 > 100 µM | RXF 393 > 100 µM | MDA-N > 100 µM | M14 > 100 µM | HT-29 > 100 µM | SK-MEL-2 > 100 µM | TK-10 > 100 µM | HCT-116 > 100 µM | SK-MEL-28 > 100 µM

Cc1ccc(C(=O)Nc2ccc(CP(=O)(O)O)cc2CP(=O)(O)O)cc1NC(=O)Nc1cc(C(=O)Nc2ccc(CP(=O)(O)O)cc2CP(=O)(O)O)ccc1C
inactive: SNB-19 > 100 µM | U-251 > 100 µM | SNB-75 > 100 µM | OVCAR-4 > 100 µM | IGROV-1 > 100 µM | OVCAR-5 > 100 µM | UACC-62 > 100 µM | SW-620 > 100 µM | SK-MEL-5 > 100 µM | RXF 393 > 100 µM | MDA-N > 100 µM | M14 > 100 µM | HT-29 > 100 µM | SK-MEL-2 > 100 µM | TK-10 > 100 µM | A498 > 100 µM | HCT-116 > 100 µM | SK-MEL-28 > 100 µM

Clc1c(Cl)c(Cl)c2c(nnn2C2CCCO2)c1Cl (centres undefined)
inactive: U-251 33.8 µM | SNB-75 12.9 µM | MOLT-4 23.2 µM | OVCAR-4 18.9 µM | IGROV-1 34.4 µM | OVCAR-5 41.7 µM | UACC-62 44.4 µM | SK-MEL-5 40.1 µM | RXF 393 44.4 µM | MDA-N 27.7 µM | M14 39.6 µM | HT-29 33.6 µM | SK-MEL-2 26.5 µM | TK-10 65.3 µM | A498 27.5 µM | HCT-116 39.1 µM

CCOC(=O)C1NCCc2c1[nH]c1ccccc21 (centres undefined)
inactive: SNB-75 > 10 µM | MOLT-4 > 10 µM | OVCAR-4 > 10 µM | IGROV-1 > 10 µM | UACC-62 > 10 µM | HOP-92 > 10 µM | SW-620 > 10 µM | SK-MEL-5 > 10 µM | RXF 393 > 10 µM | MDA-N > 10 µM | M14 > 10 µM | HT-29 > 10 µM | TK-10 > 10 µM | SK-MEL-28 > 10 µM

S=C(Nc1ccc2c(c1)oc1ccccc12)c1cccnc1
inactive: SNB-19 21.3 µM | U-251 21.6 µM | SNB-75 21.2 µM | MOLT-4 > 100 µM | OVCAR-4 33.7 µM | IGROV-1 41.1 µM | OVCAR-5 55.8 µM | UACC-62 39.5 µM | HOP-92 25.3 µM | SW-620 > 100 µM | SK-MEL-5 70.8 µM | MDA-N > 100 µM | M14 > 100 µM | HT-29 > 100 µM | SK-MEL-2 30.5 µM | TK-10 30.5 µM | HCT-116 85.7 µM | SK-MEL-28 > 100 µM

CC(=O)NNC(=S)N/C=C1/C(=O)C=C(C)OC1=O
inactive: SNB-19 > 100 µM | U-251 > 100 µM | SNB-75 > 100 µM | MOLT-4 > 100 µM | OVCAR-4 > 100 µM | IGROV-1 > 100 µM | OVCAR-5 > 100 µM | HOP-92 > 100 µM | SW-620 > 100 µM | SK-MEL-5 > 100 µM | MDA-N > 100 µM | M14 > 100 µM | HT-29 > 100 µM | SK-MEL-2 > 100 µM | TK-10 > 100 µM | HCT-116 > 100 µM | SK-MEL-28 > 100 µM

CCOC(=O)c1cc2cc(CSc3ccccc3)ccc2oc1=O
inactive: SNB-19 46.8 µM | U-251 > 100 µM | SNB-75 38.4 µM | MOLT-4 > 100 µM | OVCAR-4 > 100 µM | IGROV-1 > 100 µM | OVCAR-5 > 100 µM | UACC-62 45.9 µM | HOP-92 > 100 µM | SW-620 > 100 µM | SK-MEL-5 > 100 µM | RXF 393 39.4 µM | MDA-N > 100 µM | M14 51.5 µM | HT-29 > 100 µM | SK-MEL-2 92.5 µM | TK-10 57.9 µM | HCT-116 > 100 µM | SK-MEL-28 > 100 µM

Cc1cn(CCOCCOC(=O)NC(CCCNC(N)=O)C(=O)O)c(=O)[nH]c1=O (centres undefined)
inactive: SNB-19 > 100 µM | U-251 > 100 µM | SNB-75 > 100 µM | MOLT-4 > 100 µM | OVCAR-4 > 100 µM | IGROV-1 36 µM | OVCAR-5 > 100 µM | UACC-62 > 100 µM | HOP-92 > 100 µM | SW-620 > 100 µM | RXF 393 > 100 µM | MDA-N > 100 µM | M14 > 100 µM | HT-29 > 100 µM | SK-MEL-2 > 100 µM | TK-10 > 100 µM | HCT-116 > 100 µM | SK-MEL-28 > 100 µM
